Values quoted from earlier work in patent US20220087961A1, “TREATMENT METHODS OF TRIPHENYL CALCILYTIC COMPOUNDS” (CALCILYTIX THERAPEUTICS, INC., priority 2020, published 2022).

Tested on: subjects with ADH1
Conditions: subjects with ADH1, sample size of 5; cited from earlier work

For `CC(C)(CC1Cc2ccccc2C1)NC[C@@H](O)COc1cc(CCC(=O)O)ccc1C#N` [NPSP795], the “dose-response on iPTH” value is given as “preliminary evidence for a dose-response on iPTH”.
